From patent US20240425478A1, “CYCLOPENTYLPYRAZOLE CDK2 INHIBITORS” (Genentech, Inc., priority 2021, published 2024)

How the values were obtained:
[1] = biological target: T1, Cyclin Dependent Kinase 1/Cyclin A2 (CDK1-cycA2) (Homo sapiens, UniProt P06493); experiment: CDK1-cycA2 TR-FRET (Lance) enzyme assay; type: biochemical; details: Table P; for Ki: enzymatic assay; for FS CDK1/CDK2: fold selectivity, enzymatic Ki ratio
T1 construct: purchased ProQinase 0134-0054-1
Method in brief: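 Human CDK1/cyclin A2 pre-incubated 30 min with compound dose responses in 50 mM HEPES pH 7.5, 10 mM MgCl2, 2 mM TCEP, 0.05% BGG, 0.01% Brij 35. Reaction quenched with EDTA (15 mM final); TR-FRET readout using Eu-anti-phospho-4E-BP1, acceptor/donor ratio. Inhibition constants from Morrison equation.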

[2] = biological target: T2, Cyclin Dependent Kinase 2/Cyclin E1 (CDK2-cycE1) (Homo sapiens, UniProt P24941); experiment: CDK2-cycE1 TR-FRET (LANCE) enzyme assay; type: biochemical; details: read-out: CDK2 activity / potency (enzymatic assay)
T2 construct: purchased ProQinase 0050-0055-1
Method in brief: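 Compound dose responses pre-incubated 30 min with CDK2-cycE1 in 50 mM HEPES pH 7.5, 10 mM MgCl2, 2 mM TCEP, 0.05% BGG, 0.01% Brij 35. Reaction quenched with EDTA (15 mM final), phospho-MBP detected by Eu-anti-phospho-MBP TR-FRET (acceptor/donor ratio). Inhibition constants from Morrison equation.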

[3] = biological target: T3, Cyclin Dependent Kinase 4/Cyclin D3 (CDK4-cycD3) (Homo sapiens, UniProt P11802); experiment: CDK4-cycD3 TR-FRET (LANCE) enzyme assay; type: biochemical; details: Table P; for Ki: enzymatic assay; for FS CDK4/CDK2: fold selectivity, enzymatic Ki ratio
T3 construct: purchased Carna Biosciences 04-105
Method in brief: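 Compound dose responses pre-incubated 30 min with enzyme mix in 50 mM HEPES pH 7.5, 10 mM MgCl2, 2 mM TCEP, 0.05% BGG, 0.01% Brij 35. Reaction quenched with EDTA (15 mM final); Eu-anti-phospho-4E-BP1 TR-FRET detection, acceptor/donor ratio. Ki derived by Morrison equation.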

[4] = system: OVISE (JCRB1043, CCNE1-amplified); experiment: OVISE EdU incorporation cell proliferation assay (CDK2-dependent); type: cell-based; details: cellular assay, Table P; read-out: CDK2 OVISE IC50
Method in brief: (§1)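 Cells in RPMI/10% FBS dosed with compound (0.5% DMSO final) for 16 h at 37 °C, 5% CO2, then EdU 0.5 μM final for 8 h before fixation and imaging. IC50 from 4-parameter logistic fit of EdU-positive cell fraction versus dose.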

SKOV-3 (ATCC HTB-77) = experiment: SKOV-3 EdU incorporation cell proliferation assay (CDK4/6-dependent); type: cell-based; details: Table P; for IC50: Homo sapiens, SK-OV-3, cellular assay, read-out: CDK4/6 SKOV-3 IC50; for FS SKOV-3/OVISE: fold selectivity, cellular IC50 ratio (CDK4/6 over CDK2)
Method in brief: as §1

HCT116 cells = experiment: p-H3 HCT-116 mitotic release cell proliferation assay (cellular CDK1); type: cell-based; details: for IC50: Homo sapiens, HCT-116, cellular assay, read-out: CDK1 p-H3 IC50; for IC50 / FS p-H3/OVISE: Table P; for FS p-H3/OVISE: fold selectivity, cellular IC50 ratio (CDK1 over CDK2)
Method: Inhibition of cellular CDK1 determined by release of cells from nocodazole-induced mitotic arrest, as measured by decrease in phospho-Histone H3. Histone H3 (Ser 10) level is detected in cell lysates by producing a Fluorescence Resonance Energy Transfer (FRET) signal between two antibodies, Phospho-Histone H3 Cryptate (acting as the donor) and Phospho-Histone H3 d2 (acting as the acceptor).
Plates are allowed to rest overnight at 37° C./5% CO2. The following morning, nocodazole is diluted in complete medium, and 5 μL is added to each test well and positive control well for a final concentration of 500 nM. Plates are then incubated for 16 hours at 37° C./5% CO2. […] 10 μL of diluted compound is then transferred to the cell plate (final DMSO concentration 0.1%). Cell plates are then incubated for 4 hours in 37° C. 5% CO2. A cell lysis buffer is prepared on ice using reagents from the Phospho-Histone H3 (Ser10) cellular kit (Cisbio-64HH3PEG). Supernatant is discarded from the cell plate and 80 μL of the supplemented cell lysis buffer (1:99 dilution of the Blocking Reagent and the 1× cell lysis buffer provided in the kit) is added to each of the experimental wells. The cell lysis reaction is allowed to proceed at room temperature while shaking vigorously for 30 minutes. The 384-well HTRF (Homogeneous Time Resolved Fluorescence) plate is prepared by adding 2 μL of each diluted antibody (Phospho-Histone H3 Cryptate antibody and Phospho-Histone H3 d2 antibody diluted 19:1 in a detection buffer) and 12 μL of the supplemented cell lysis buffer to each well in the HTRF plate. 4 μL of the cell lysate is added to the prepared HTRF plate which is then sealed and the reaction is allowed to proceed for a minimum of 2 hours at room temperature.

T3 sequence (P11802 whole entry): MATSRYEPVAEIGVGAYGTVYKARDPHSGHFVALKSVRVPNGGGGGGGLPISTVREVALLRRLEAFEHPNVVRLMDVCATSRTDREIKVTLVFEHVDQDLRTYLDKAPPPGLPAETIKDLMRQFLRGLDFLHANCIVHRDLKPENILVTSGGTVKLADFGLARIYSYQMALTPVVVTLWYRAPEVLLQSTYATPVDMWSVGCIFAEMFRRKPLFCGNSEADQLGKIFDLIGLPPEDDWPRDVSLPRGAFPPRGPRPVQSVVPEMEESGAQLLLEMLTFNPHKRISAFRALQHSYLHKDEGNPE
T3 sequence (P30281 whole entry partner): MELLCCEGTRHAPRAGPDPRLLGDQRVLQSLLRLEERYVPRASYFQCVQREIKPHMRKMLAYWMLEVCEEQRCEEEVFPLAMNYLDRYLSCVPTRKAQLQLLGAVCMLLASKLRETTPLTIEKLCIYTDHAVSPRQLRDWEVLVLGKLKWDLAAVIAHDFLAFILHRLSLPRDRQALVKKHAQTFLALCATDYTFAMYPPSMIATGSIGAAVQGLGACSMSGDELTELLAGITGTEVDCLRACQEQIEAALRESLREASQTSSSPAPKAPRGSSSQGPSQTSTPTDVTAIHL
T1 sequence (P06493 whole entry): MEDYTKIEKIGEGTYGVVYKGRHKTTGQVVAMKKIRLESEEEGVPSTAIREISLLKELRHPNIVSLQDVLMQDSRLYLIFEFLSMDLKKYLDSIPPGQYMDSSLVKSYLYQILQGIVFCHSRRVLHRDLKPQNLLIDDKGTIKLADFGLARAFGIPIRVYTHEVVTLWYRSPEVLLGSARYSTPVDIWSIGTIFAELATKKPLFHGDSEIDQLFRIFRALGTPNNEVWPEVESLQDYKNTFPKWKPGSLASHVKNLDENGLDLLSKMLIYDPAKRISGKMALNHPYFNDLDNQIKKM
T1 sequence (P20248 whole entry partner): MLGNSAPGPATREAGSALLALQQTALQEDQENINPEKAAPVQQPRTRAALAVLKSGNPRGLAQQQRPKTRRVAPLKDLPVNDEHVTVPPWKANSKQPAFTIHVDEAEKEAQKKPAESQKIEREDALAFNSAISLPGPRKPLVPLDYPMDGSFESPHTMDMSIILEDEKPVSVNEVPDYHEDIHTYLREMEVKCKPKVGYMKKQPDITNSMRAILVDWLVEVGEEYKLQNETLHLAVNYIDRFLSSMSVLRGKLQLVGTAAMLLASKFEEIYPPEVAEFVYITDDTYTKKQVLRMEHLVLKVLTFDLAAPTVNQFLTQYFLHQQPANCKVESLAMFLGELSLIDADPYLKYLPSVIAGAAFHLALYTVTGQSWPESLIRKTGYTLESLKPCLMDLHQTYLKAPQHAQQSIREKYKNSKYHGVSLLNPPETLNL

With `CC(C)(C)NC(=O)O[C@@H]1CC[C@H](c2cc(NC(=O)Cc3ccnnc3)n[nH]2)C1` [Comparator A, reference compound] the Ki [1] was 9.1 nM, the “FS CDK1/CDK2” value [1] was 54 and the Ki [2] was 0.17 nM. For the same compound, the Ki [3] was 38 nM, the “FS CDK4/CDK2” value [3] was 224 and the IC50 [4] was 40 nM. For the same compound, the IC50 (SKOV-3 (ATCC HTB-77)) was 1700 nM, the “FS SKOV-3/OVISE” value (SKOV-3 (ATCC HTB-77)) was 43 and the “pH3/OVISE fold selectivity (CDK1 over CDK2, cellular assay data)” value (HCT116 cells) was 0.78 fold. The IC50 (HCT116 cells) was 31 nM and the “FS p-H3/OVISE” value (HCT116 cells) was 0.78.

With `CC(C)(C)NC(=O)O[C@@H]1CC[C@H](c2cc(NC(=O)c3ccnnc3)n[nH]2)C1` [Comparator B, reference compound] the Ki [1] was 32 nM, the “FS CDK1/CDK2” value [1] was 32 and the Ki [2] was 1 nM. The Ki [3] was 250 nM, the “FS CDK4/CDK2” value [3] was 250 and the IC50 [4] was 140 nM. The IC50 (SKOV-3 (ATCC HTB-77)) was 6700 nM, the “FS SKOV-3/OVISE” value (SKOV-3 (ATCC HTB-77)) was 48 and the “pH3/OVISE fold selectivity (CDK1 over CDK2, cellular assay data)” value (HCT116 cells) was 0.31 fold. For the same compound, the IC50 (HCT116 cells) was 43 nM and the “FS p-H3/OVISE” value (HCT116 cells) was 0.31.
